Read-outs that look alike come from different tables or passages of the source.
Assay: Pilot PK study of orally applied KB-R7943 in control and STZ-induced diabetic rats (LC-MS/MS)
Assay type: in vivo, rat
Conditions: for AUC(0-inf) / Cmax / Tmax / half-life / AUC(0-t) / Kp: Wistar, rat, po, 10 mg/kg; for AUC(0-t): read-out: AUC(0-24); for Kp: read-out: AUC(0-24) tissue/AUC (0-24) plasma; for Vd (volume of distribution): dose/(λ × AUC 0–24); for Cl (clearance): dose/AUC0-24
Method: Chromatographic separation was achieved by injecting 5 μL of the sample extract (on each instrument) into a Zorbax SB-C8 150 mm × 4.6 mm × 1.8 μm column. The mobile phase was a mixture in a gradient mode of two components: solvent A - 0.1% formic acid in water and solvent B - 0.1% formic acid in acetonitrile. The flow rate was set to 0.400 ml/min with the following gradient program: 0.0–0.5 min 90% solvent A, 0.5–10.0 min 10% solvent A, 10.0–12.0 min 10% solvent A, 12.0–12.1 min 90% solvent A, 12.1–13.0 min 90% solvent A. Mass spectrometric detection was performed with positive electrospray (ESI(+)). Analytes were determined by selecting two characteristic target reactions (MRM transitions) and the retention time of the analytes. The following MS parameters were kept constant during the analysis: nebulizer voltage 4800 V for positive ionization. The temperature of the cone was set at 300 °C, the temperature of the heated probe at 400 °C, the gas flowed through the nebulizer at 3 l/min, and the flow rate of the drying gas was 10 l/min. Two product ions and one precursor ion were selected for analyte identification (Table 1).
200 mg of the sample (plasma, urine, homogenate) was transferred into 1.5 ml Eppendorf tubes, 10 μl of the internal standard solution was added and thoroughly mixed using a rotary shaker, and then 1 ml of the extracting solution of 0.1% formic acid in acetonitrile, was added. After ultrasonic stirring for 15 min, the tubes were centrifuged at 14,000 rpm for 5 min. Approximately 1 ml of the supernatant was decanted and transferred to a 15 ml Falcon plastic tube, 1 ml of the extracting solution (0.1% formic acid in acetonitrite) was added to the precipitate, and the extraction procedure was repeated. […] successive extracts were combined, 3 ml of hexane was added, and mixed on a rotary shaker for 5 min, after which the top layer of hexane was separated, and the purification procedure was repeated 2 more times. The purified extract was transferred to a 5 ml glass vial and evaporated to dryness in an FMS Super Vap 24 at 45 °C under nitrogen flow. 200 μL of the extractant was added to the vials, and the remains of the analyte were washed off the walls of the vial by stirring the solution on a rotary shaker for 3 min, after which the resulting solution was transferred into glass vials for HPLC analysis. With each batch of samples, appropriate matrix controls were prepared and extracted with the addition of KB- R7943 at 0, 0.1, 1, 10, 100, 1000, 5000, 20,000, and 200,000 ng/g and extracted simultaneously with the samples (Fig. 2).
Experiment 1 (Fig. 3A) was designed as a pilot PK study to assess the body distribution of orally applied KB-R7943 and to inform about some important PK parameters. Two groups, i.e., controls (n = 9) and STZ-induced diabetic models (n = 9), were included in the experiment. Each rat was placed in an individual metabolic cage and kept there until the administration of the drug. The KB-R7943 was applied once, p.o., in a 10 mg/kg dose with gavage. OraPlus was a vehiculum (16 gauge feeding tube 10 ml/kg). After applying of the KB-R7943, each rat was returned to their cage, and blood and urine samples were collected at 1st, 6th, and 24th hours (different n = 3 at each time-point). Metabolic cages were specially designed to separate feces from urine through the funnel, and a separation cone was used.
Blood samples were collected in EDTA-containing tubes with cardiopunction under ketamine-xylasine anesthesia (100 mg/kg and 10 mg/kg, respectively). After 1 h incubation (+4/+8 °C), blood was centrifugated 1000 g, and the plasma was used for the analysis after that.
Isolation of tissue samples of the heart and parts of the brain was performed after perfusion of the upper body of the rat with a phosphate-buffered saline (PBS) using a perfusion pump (BT100-2J LongerPump, Halma PLC, UK). Homogenates were prepared as 1:4 ratios (v/v) with PBS and stored at −80 °C until analysis. […]

[1] = AUC tissue/AUC plasma, 10 mg/kg p.o. once
[2] = cortex, STZ-diabetic rats, 10 mg/kg p.o. once
[3] = cortex, control rats, 10 mg/kg p.o. once
[4] = cortex, cortex, STZ-diabetic rats, 10 mg/kg p.o. once
[5] = cortex, cortex, control rats, 10 mg/kg p.o. once
[6] = heart, STZ-diabetic rats, 10 mg/kg p.o. once
[7] = heart, control rats, 10 mg/kg p.o. once
[8] = hippocampus, STZ-diabetic rats, 10 mg/kg p.o. once
[9] = hippocampus, control rats, 10 mg/kg p.o. once
[10] = hippocampus, hippocampus, STZ-diabetic rats, 10 mg/kg p.o. once
[11] = hippocampus, hippocampus, control rats, 10 mg/kg p.o. once
[12] = hypothalamus, STZ-diabetic rats, 10 mg/kg p.o. once
[13] = hypothalamus, control rats, 10 mg/kg p.o. once
[14] = hypothalamus, hypothalamus, STZ-diabetic rats, 10 mg/kg p.o. once
[15] = hypothalamus, hypothalamus, control rats, 10 mg/kg p.o. once
[16] = plasma, STZ-diabetic rats, 10 mg/kg p.o. once
[17] = plasma, control rats, 10 mg/kg p.o. once
[18] = urine, STZ-diabetic rats, 10 mg/kg p.o. once
[19] = urine, control rats, 10 mg/kg p.o. once

## N=C(N)SCCc1ccc(OCc2ccc([N+](=O)[O-])cc2)cc1 [KB-R7943, [(2-{4-[(4-nitrophenyl)methoxy]phenyl}ethyl)sulfanyl]methanimidamide]
[1]
  heart penetration, times higher in control group vs. diabetic rats: 1.2 times
  hippocampus penetration, times higher in control group vs. diabetic rats: over 2.5 times
[2]
  AUC(0-inf): 1000 ng·h/mL
  Cmax: 103 ng/mL
  Tmax: 1 h
  half-life: 7.7 h
  %Extrap: 12,20%
  ƛ (terminal slope): −0.07
[3]
  Cmax: 11.5 ng/mL
  Tmax: 24 h
  %Extrap: 142,00%
  ƛ (terminal slope): 0.02
[4]
  AUC(0-t): 880 ng·h/mL
  Kp: 14.5
[5]
  AUC(0-t): 232 ng·h/mL
  Kp: 14.2
[6]
  Cmax: 5600 ng/mL
  Tmax: 1 h
  half-life: 5.7 h
  %Extrap: 6,20%
  ƛ (terminal slope): −0.12
[7]
  Cmax: 893 ng/mL
  Tmax: 1 h
  half-life: 7 h
  %Extrap: 8,4%
  ƛ (terminal slope): −0.11
heart, heart, STZ-diabetic rats, 10 mg/kg p.o. once
  Kp: 499
heart, heart, control rats, 10 mg/kg p.o. once
  Kp: 622
[8]
  AUC(0-inf): 865 ng·h/mL
  Cmax: 57 ng/mL
  Tmax: 1 h
  half-life: 11.6 h
  %Extrap: 25,40%
  ƛ (terminal slope): −0.05
[9]
  Cmax: 39.6 ng/mL
  Tmax: 24 h
  ƛ (terminal slope): 0.04
[10]
  AUC(0-t): 645 ng·h/mL
  Kp: 10.7
[11]
  AUC(0-t): 449 ng·h/mL
  Kp: 27.4
[12]
  AUC(0-inf): 1020 ng·h/mL
  Cmax: 75 ng/mL
  Tmax: 1 h
  half-life: 13.7 h
  %Extrap: 34,50%
  ƛ (terminal slope): −0.04
[13]
  Cmax: 9.5 ng/mL
  Tmax: 24 h
  %Extrap: 111,50%
  ƛ (terminal slope): 0.01
[14]
  AUC(0-t): 668 ng·h/mL
  Kp: 11
[15]
  AUC(0-t): 215 ng·h/mL
  Kp: 13.1
[16]
  AUC(0-inf): 61.7 ng·h/mL
  Cmax: 11 ng/mL
  Tmax: 1 h
  half-life: 4.2 h
  %Extrap: 1,90%
  ƛ (terminal slope): −0.16
  Vd (volume of distribution): 288.78 L
  Cl (clearance): 46.20 L/h
[17]
  AUC(0-inf): 17.7 ng·h/mL
  Cmax: 3.2 ng/mL
  Tmax: 1 h
  half-life: 6.1 h
  %Extrap: 7,40%
  Vd (volume of distribution): 2100.27 L
  Cl (clearance): 189.02 L/h
plasma, plasma, STZ-diabetic rats, 10 mg/kg p.o. once
  AUC(0-t): 60.6 ng·h/mL
plasma, plasma, control rats, 10 mg/kg p.o. once
  AUC(0-t): 16.4 ng·h/mL
plasma, systemic circulation after oral application, rats
  Tmax: ~1 h
[18]
  Cmax: 59.3 ng/mL
  Tmax: 24 h
  %Extrap: 196,30%
  ƛ (terminal slope): −0.04
[19]
  Cmax: 47.2 ng/mL
  Tmax: 24 h
  ƛ (terminal slope): 0.07
urine, urine, STZ-diabetic rats, 10 mg/kg p.o. once
  AUC(0-t): 974 ng·h/mL
urine, urine, control rats, 10 mg/kg p.o. once
  AUC(0-t): 727 ng·h/mL
Cortex concentration, controls, 10 mg/kg p.o. once
  β of linear regression Ln(Conc) vs time: β = 0.015, p = 0.703
Cortex concentration, diabetes, 10 mg/kg p.o. once
  β of linear regression Ln(Conc) vs time: β = −0.075, p = 0.008
Heart concentration, controls, 10 mg/kg p.o. once
  β of linear regression Ln(Conc) vs time: β = −0.107, p = 0.003
Heart concentration, diabetes, 10 mg/kg p.o. once
  β of linear regression Ln(Conc) vs time: β = −0.125, p = 0.026
Hippocampus concentration, controls, 10 mg/kg p.o. once
  β of linear regression Ln(Conc) vs time: β = −0.037, p = 0.283
Hippocampus concentration, diabetes, 10 mg/kg p.o. once
  β of linear regression Ln(Conc) vs time: β = −0.048, p = 0.097
Hypothalamus concentration, controls, 10 mg/kg p.o. once
  β of linear regression Ln(Conc) vs time: β = −0.007, p = 0.830
Hypothalamus concentration, diabetes, 10 mg/kg p.o. once
  β of linear regression Ln(Conc) vs time: β = −0.045, p = 0.127
Plasma concentration, controls, 10 mg/kg p.o. once
  β of linear regression Ln(Conc) vs time: β = 0.094, p = 0.036
Plasma concentration, diabetes, 10 mg/kg p.o. once
  β of linear regression Ln(Conc) vs time: β = 0.163, p = 0.017
plasma, 10 mg/kg p.o. once
  AUC(0-24), times higher in rats with diabetes vs. controls: Over 3 times
  Vd, times lower in rats with diabetes vs. controls: over 7 times
  decline of the plasma concentration, rats with diabetes vs. controls: over one and half times faster decline
  systemic clearance, times lower in rats with diabetes vs. controls: over 4 times
Urine concentration, controls, 10 mg/kg p.o. once
  β of linear regression Ln(Conc) vs time: β = −0.074, p = 0.158
Urine concentration, diabetes, 10 mg/kg p.o. once
  β of linear regression Ln(Conc) vs time: β = −0.041, p = 0.455

Reference: article PMC10958225, “Therapeutic potential of orally applied KB-R7943 in streptozotocin-induced neuropathy in rats” (Heliyon, 2024)
